Measured values published in ChEMBL document CHEMBL5154690, “Discovery of a tricyclic farnesoid X receptor agonist HEC96719, a clinical candidate for treatment of non-alcoholic steatohepatitis” (Eur J Med Chem, 2022).
Activity calls are given as the source filed them. The calls are words filed in the database; no cut-off is given here.

What was measured:
[1] = test system: Mus musculus; assay: Anti-NASH activity against high fat (HF) diet-induced nonalcoholic steatohepatitis in leptin-deficient ob/ob mouse model assessed as reduction in NASH activity score (NAS) at 0.3 to 1 mg/kg, po administered once daily from week 5 to 10; assay type: functional, organism-based; settings: dose 0.3-1 mg/kg
[2] = Drug recovery in skin of male Sprague-Dawley rat at 4.5 mg/kg, po administered as C14-lableled compound and assessed as radioactivity and measured at 0.25 hrs; assay type: ADME, organism-based, Skin of body; settings: in vivo
[3] = Drug recovery in liver of male Sprague-Dawley rat at 4.5 mg/kg, po administered as C14-lableled compound and assessed as radioactivity and measured at 24 hrs; assay type: ADME, organism-based; settings: in vivo
[4] = Drug metabolism in feces of Sprague-Dawley rat assessed as production of toxic metabolites at 4.5 mg/kg, po administered as C14-lableled compound with single dose; assay type: ADME, organism-based; settings: in vivo
[5] = target: T1, G-protein coupled bile acid receptor 1 (Homo sapiens) (UniProt Q8TDU6); assay: Agonist activity in human GPBAR1 assessed as increase in intracellular cAMP level relative to control; assay type: functional, cell-based
T1 sequence (whole entry): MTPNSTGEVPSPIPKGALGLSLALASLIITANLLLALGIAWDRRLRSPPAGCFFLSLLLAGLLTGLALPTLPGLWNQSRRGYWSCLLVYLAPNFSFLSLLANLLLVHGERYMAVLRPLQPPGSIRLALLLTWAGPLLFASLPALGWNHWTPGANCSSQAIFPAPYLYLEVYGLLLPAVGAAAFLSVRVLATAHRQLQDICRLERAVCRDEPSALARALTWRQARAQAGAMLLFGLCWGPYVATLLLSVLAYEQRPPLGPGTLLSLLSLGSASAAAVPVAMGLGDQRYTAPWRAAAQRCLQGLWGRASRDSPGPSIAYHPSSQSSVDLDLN

[6] = Drug recovery in pancreas of male Sprague-Dawley rat at 4.5 mg/kg, po administered as C14-lableled compound and assessed as radioactivity and measured at 1 hr; assay type: ADME, organism-based; settings: in vivo
[7] = Drug recovery in brain of male Sprague-Dawley rat at 4.5 mg/kg, po administered as C14-lableled compound and assessed as radioactivity and measured at 24 hrs; assay type: ADME, organism-based; settings: in vivo, BLD = below limit of detection
[8] = target: Estrogen receptor beta (Homo sapiens, UniProt Q92731); assay: Agonist activity at estrogen receptor beta (unknown origin)
Estrogen receptor beta, sequence (Q92731 whole entry): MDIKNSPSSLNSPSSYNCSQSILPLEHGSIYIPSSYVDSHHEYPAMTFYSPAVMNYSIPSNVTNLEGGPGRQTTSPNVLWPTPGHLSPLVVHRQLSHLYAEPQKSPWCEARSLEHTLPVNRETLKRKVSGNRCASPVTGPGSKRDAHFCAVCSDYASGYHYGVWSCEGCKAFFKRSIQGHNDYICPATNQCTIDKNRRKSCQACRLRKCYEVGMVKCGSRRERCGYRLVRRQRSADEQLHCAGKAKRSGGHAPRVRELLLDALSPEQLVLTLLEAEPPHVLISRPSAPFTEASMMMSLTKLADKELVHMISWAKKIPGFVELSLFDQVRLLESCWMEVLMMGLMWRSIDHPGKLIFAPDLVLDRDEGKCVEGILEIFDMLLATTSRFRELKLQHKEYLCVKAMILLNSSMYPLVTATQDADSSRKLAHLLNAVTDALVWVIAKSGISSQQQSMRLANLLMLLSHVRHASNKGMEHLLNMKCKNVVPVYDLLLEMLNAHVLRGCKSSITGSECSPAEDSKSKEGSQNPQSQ

## O=C(O)c1ccc2c(c1)Oc1ccc(OCc3c(-c4c(Cl)cccc4Cl)noc3C3CC3)nc1C1(CC1)C2
[1]
  Activity: Active
[2]
  Drug recovery: 33.3 ngequiv/g
[3]
  Drug recovery: 304 ngequiv/g
[4]
  Drug metabolism: Metabolite_Notdetected
[5]
  Activity: 29%
[6]
  Drug recovery: 229 ngequiv/g
[7]
  Drug recovery: Bld
[8]
  EC50: > 10 µM
